Laboratory results from ChEMBL document CHEMBL4665817, “Immobilized Metal Affinity Chromatography as a Drug Discovery Platform for Metalloenzyme Inhibitors” (J Med Chem, 2020).
Activity calls are given as the source filed them. The calls are words filed in the database; no cut-off is given here.

Columns and labels:
Settings in all cases: dose 2.55 µmol
[1] = Binding affinity to Zinc ion at 2.55 umol in presence of DTT by immobilized metal-ion affinity chromatography
[2] = Binding affinity to cupric ion assessed as performance ratio ratio by measuring product of accounting ratio and retention ratio at 2.55 umol by immobilized metal-ion affinity chromatography
[3] = Binding affinity to Zinc ion assessed as retention ratio by measuring compound detected in elution fraction/total compound detected at 2.55 umol by immobilized metal-ion affinity chromatography
[4] = Binding affinity to cupric ion assessed as retention ratio by measuring compound detected in elution fraction/total compound detected at 2.55 umol by immobilized metal-ion affinity chromatography
[5] = Binding affinity to gallium ion assessed as accounting ratio by measuring total compound detected/total compound adsorbed at 2.55 umol by immobilized metal-ion affinity chromatography
[6] = Binding affinity to Nickel cation assessed as retention ratio by measuring compound detected in elution fraction/total compound detected at 2.55 umol by immobilized metal-ion affinity chromatography
[7] = Binding affinity to Nickel cation assessed as performance ratio ratio by measuring product of accounting ratio and retention ratio at 2.55 umol by immobilized metal-ion affinity chromatography
[8] = Binding affinity to cupric ion assessed as accounting ratio by measuring total compound detected/total compound adsorbed at 2.55 umol by immobilized metal-ion affinity chromatography
[9] = Binding affinity to Zinc ion assessed as performance ratio ratio by measuring product of accounting ratio and retention ratio at 2.55 umol by immobilized metal-ion affinity chromatography
[10] = Binding affinity to Gallium ion assessed as retention ratio by measuring compound detected in elution fraction/total compound detected at 2.55 umol by immobilized metal-ion affinity chromatography
[11] = Binding affinity to Ferric ion assessed as retention ratio by measuring compound detected in elution fraction/total compound detected at 2.55 umol by immobilized metal-ion affinity chromatography
[12] = Binding affinity to Nickel cation assessed as accounting ratio by measuring total compound detected/total compound adsorbed at 2.55 umol by immobilized metal-ion affinity chromatography
[13] = Binding affinity to zinc ion assessed as accounting ratio by measuring total compound detected/total compound adsorbed at 2.55 umol by immobilized metal-ion affinity chromatography
[14] = Binding affinity to Ferric ion assessed as performance ratio ratio by measuring product of accounting ratio and retention ratio at 2.55 umol by immobilized metal-ion affinity chromatography
[15] = Binding affinity to ferric ion assessed as accounting ratio by measuring total compound detected/total compound adsorbed at 2.55 umol by immobilized metal-ion affinity chromatography
[16] = Binding affinity to Gallium ion assessed as performance ratio ratio by measuring product of accounting ratio and retention ratio at 2.55 umol by immobilized metal-ion affinity chromatography

Row | Compound | Activity [1] | Ratio [2] | Ratio [3] | Ratio [4] | Ratio [5] | Ratio [6] | Ratio [7] | Ratio [8] | Ratio [9] | Ratio [10] | Ratio [11] | Ratio [12] | Ratio [13] | Ratio [14] | Ratio [15] | Ratio [16]
1 | C[C@H](CSS[C@@H](Cc1ccccc1)C(=O)N[C@H]1CCS[C@H]2CCC[C@@H](C(=O)O)N2C1=O)C(=O)N1CCC[C@H]1C(=O)O | inactive | – | – | – | – | – | – | – | – | – | – | – | – | – | – | –
2 | Nc1ccc(C(=O)O)c(O)c1 | – | 0 | 0 | 0 | 0.69 | 0 | 0 | 0.87 | 0 | 0.74 | 0.51 | 0.83 | 0.87 | 0.08 | 0.15 | 0.52
3 | O=C(N[C@H]1CCS[C@H]2CCC[C@@H](C(=O)O)N2C1=O)[C@@H](S)Cc1ccccc1 | – | 0 | 1 | 0 | 0 | 1 | 0.19 | 0 | 1.43 | 0 | 0 | 0.19 | 1.43 | 0 | 0 | 0
4 | O=c1cccccc1O | – | 1.26 | 1 | 1 | 0 | 1 | 0.7 | 1.26 | 0.97 | 0 | 0 | 0.7 | 0.97 | 0 | 0 | 0
5 | O=C(N[C@H]1CCS[C@H]2CCC[C@@H](C(=O)O)N2C1=O)[C@H](Cc1ccccc1)SS[C@@H](Cc1ccccc1)C(=O)N[C@H]1CCS[C@H]2CCC[C@@H](C(=O)O)N2C1=O | inactive | – | – | – | – | – | – | – | – | – | – | – | – | – | – | –
6 | COc1c(N2C[C@@H]3CCCN[C@@H]3C2)c(F)cc2c(=O)c(C(=O)O)cn(C3CC3)c12 | – | 0.24 | 1 | 0.95 | 0.16 | 1 | 0.89 | 0.25 | 1.05 | 0.14 | 0.73 | 0.89 | 1.05 | 0.15 | 0.21 | 0.02
7 | C[C@H](CSSC[C@@H](C)C(=O)N1CCC[C@H]1C(=O)O)C(=O)N1CCCC1C(=O)O (stereo partly drawn) | inactive | – | – | – | – | – | – | – | – | – | – | – | – | – | – | –
8 | NCCCC[C@H](N[C@@H](CCc1ccccc1)C(=O)O)C(=O)N1CCC[C@H]1C(=O)O | – | 0 | 0 | 0 | 0.93 | 0 | 0 | 0.88 | 0 | 0 | 0 | 0.72 | 0.89 | 0 | 0.9 | 0
9 | O=C(/C=C/c1cccc(S(=O)(=O)Nc2ccccc2)c1)NO | – | 0.13 | 1 | 1 | 0.23 | 1 | 1.08 | 0.13 | 1.21 | 1 | 0 | 1.08 | 1.21 | 0 | 0 | 0.23
10 | Nc1ccccc1NC(=O)c1ccc(CNC(=O)OCc2cccnc2)cc1 | – | 0.01 | 0.01 | 0.02 | 0.98 | 0.6 | 0.21 | 0.59 | 0.01 | 0.01 | 0 | 0.35 | 0.83 | 0 | 0.99 | 0.01
11 | C[C@H](N[C@@H](CCc1ccccc1)C(=O)O)C(=O)N1CCC[C@H]1C(=O)O | – | 0 | 0.01 | 0 | 1 | 0 | 0 | 0.99 | 0.01 | 0 | 0 | 0.81 | 0.98 | 0 | 1.02 | 0
12 | C[C@H](CSC(=O)c1ccccc1)C(=O)N1C[C@@H](Sc2ccccc2)C[C@H]1C(=O)O | – | 0 | 0.01 | 0 | 1.43 | 0.01 | 0.01 | 1.51 | 0.01 | 0.01 | 0 | 1.29 | 1.4 | 0 | 1.46 | 0.01
13 | C[C@H](CS)C(=O)N1CCC[C@H]1C(=O)O | – | 0 | 1 | 0 | 0 | 0 | 0 | 0 | 1.17 | 0 | 0 | 0 | 1.17 | 0 | 0 | 0
14 | CC1(C)Cc2c(-c3ccccc3)c(-c3ccc(Cl)cc3)c(CC(=O)O)n2C1 | – | 0 | 0.03 | 0 | 1.08 | 0.03 | 0.03 | 1.03 | 0.03 | 0.06 | 0.39 | 1.03 | 1.05 | 0.37 | 0.97 | 0.06
15 | O=C(CCCCCCC(=O)Nc1ccccc1)NO | – | 0.08 | 1 | 0.61 | 0.41 | 1 | 1.14 | 0.14 | 1.19 | 1 | 0 | 1.14 | 1.19 | 0 | 0 | 0.41
16 | CC(=O)Nc1ccc(C(=O)Nc2ccccc2N)cc1 | – | 0 | 0 | 0 | 0.99 | 0.01 | 0.01 | 0.99 | 0 | 0 | 0 | 1 | 1.01 | 0 | 1.01 | 0
17 | O=C(O)c1cc(/N=N/c2ccc(S(=O)(=O)Nc3ccccn3)cc2)ccc1O | – | 0.63 | 0.79 | 0.63 | 0.83 | 1 | 0.89 | 1 | 0.48 | 0.99 | 1 | 0.89 | 0.61 | 0.79 | 0.79 | 0.82
18 | Cc1[nH]c2ccccc2c1CCNCc1ccc(/C=C/C(=O)NO)cc1 | – | 0.25 | 1 | 1 | 0 | 1 | 0.84 | 0.25 | 0.7 | 0 | 1 | 0.84 | 0.7 | 0.03 | 0.03 | 0
19 | Cc1ccc(Cl)c(Nc2ccccc2C(=O)O)c1Cl | – | 0 | 0 | 0 | 1.01 | 0 | 0 | 1.05 | 0 | 0 | 0 | 0.96 | 0.97 | 0 | 0.99 | 0
